Where no end group is shown, it is not given here.
Key:
[1] = tested on: C57/BL6 mice; assay: Immune response on repeated administration (ELISA, Greiss test on serum); type: in vivo; settings: first week, compared with PEI only
[2] = tested on: ZR-75-1 cells; assay: Transfection of ZR-75-1 cells, GFP expression by flow cytometry; type: cell-based
Protocol: In order to test the RALA in vitro, small scale transfections were performed carried out. 5×10^4 cells were seeded onto each well of a 96 well plate and the cells incubated under with complete medium standard conditions for 48 hours. The medium was subsequently removed from the plates and 100 μl of transfection medium (Optimem Invitrogen, UK) was added to each well. Cells were incubated for 2 hours at 37° C. and 5% CO2 standard conditions. In the meanwhile complexes were made up using 1 μg of plasmid DNA with the RALA vector and added to the cells when the two hours had passed. 100 μl of the each N:P ratio were added to each well of the cells. Cells were then incubated for a further 4 hours under standard conditions and the medium with RPMI-1640 supplemented with +10% FCS. (FIG. 4, 31 (+Chloroquine), 32 (+Bafilomycin), 33 (+KALA NPs), 34 (+Lipofectamine), 35).
ZR-75-1 & PC-3 cells that were transfected with RALA/pEGFP-N1 complexes were trypsinised and washed twice with 2% formaldehyde in phosphate buffered saline. The expression of green fluorescent protein was measured by flow cytometry using FACS calibur system (BD Bioscience, UK). The data was analysed using the Flo-Jo software program and fluorescent intensity is reported at 4% gating. (FIG. 7b, 11, 31, 32, 33, 34, 35, 57 (+RAT/pEGFP-N1)).

[3] = Nanoparticle size and charge analysis (DLS, Laser Doppler Velocimetry, Malvern Zetasizer); type: physicochemical
Protocol: In order to obtain particle size and charge distributions the mean hydrodynamic particle size measurements RALA complexes were performed using Dynamic Light Scattering (DLS). Dynamic Light Scattering is based upon the principle that when particles are illuminated with a laser, due to Brownian motion there will be scattering of the light. The intensity of the scattered light fluctuates as a result of this Brownian motion caused by bombardment of the particles by solvent molecules. A correlation curve reflecting the decay rate is generated based on fluctuations of the scattered light where a slower correlation decay rate represents a slower moving particle. Based on the Stokes-Einstein equation larger particles move more slowly and, thus, the correlation function can be used to determine the size distribution of the particles. dynamic light scattering (DLS) was used.
Surface charge measurements of the RALA nanoparticles were determined by Laser Doppler Velocimetry. The zeta potential of the particles was measured using disposable foltable zeta cuvettes. […]
The nanoparticles were made up at an appropriate range of N:P ratios with at least using 2 μg of DNA in each sample. Nanoparticles were analysed using either and analysis was completed on either the Zetasizer-HS3000 (Malvern Instruments) or the Zetasizer-Nano instrument with DTS software (Malvern Instruments, UK). […]

| Sequence | initial TNFα response [1] | ability to transfect cells [2] | ability to condense DNA into nanoparticles [3] |
| --- | --- | --- | --- |
| WEARLARALARALARHLARALARALRACEA [RALA] | significantly lower initial response of TNFα than the PEI only treated animals |  |  |
| WEARLARALARALARHLRACEA (22mer protein sequence (Table 2)) [Peptide 22mer, comparative peptide] |  | unable to condense DNA into nanoparticles and transfect cells | unable to condense DNA into nanoparticles |

— patent US9744244B2, “Amphipathic peptide” (The Queen's University of Belfast, priority 2012, dated 2017)
